Each compound was assayed against Serine/threonine-protein kinase Nek2 (Homo sapiens) (UniProt P51955) (assay: NEK2 binders by thermal shift, biophysical, DSF, SYPRO orange, recombinant protein (AID 506)). Conditions: at 10 µM, protein 2 µM, stronger effect = higher value; call rule not given here.
Sequence of Serine/threonine-protein kinase Nek2 (Homo sapiens) (P51955 whole entry, looked up): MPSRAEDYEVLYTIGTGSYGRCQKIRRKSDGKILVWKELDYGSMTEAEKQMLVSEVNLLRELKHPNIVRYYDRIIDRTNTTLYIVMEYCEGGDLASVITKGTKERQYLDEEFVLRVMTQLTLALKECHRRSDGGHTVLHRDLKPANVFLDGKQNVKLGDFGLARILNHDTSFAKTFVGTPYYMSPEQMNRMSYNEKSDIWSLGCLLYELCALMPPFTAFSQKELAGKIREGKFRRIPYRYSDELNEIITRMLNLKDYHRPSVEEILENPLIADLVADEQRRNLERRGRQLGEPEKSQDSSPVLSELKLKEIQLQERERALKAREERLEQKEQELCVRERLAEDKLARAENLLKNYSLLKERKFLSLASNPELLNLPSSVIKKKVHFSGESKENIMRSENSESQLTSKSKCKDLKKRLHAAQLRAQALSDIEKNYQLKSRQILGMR

Tm shift, active:
O=c1c(O)c(-c2ccc(O)c(O)c2)oc2cc(O)cc(O)c12 3.4 °C
O=C1C(C2=C3C(=Nc4ccccc43)/C(=C\c3ccc(O)cc3)C2=O)=C2C(=Nc3ccccc32)/C1=C\c1ccc(O)cc1 3.2 °C
C=CCNC(=O)c1cccc2c1-c1ccccc1C2=O 4.6 °C
Nc1cccc(-c2cc3c(Oc4cccc(O)c4)ncnc3[nH]2)c1 3.3 °C
Nc1cc2ncnc(Nc3cccc(Br)c3)c2cc1N 3.3 °C
Clc1cccc(Nc2ccn3ncc(-c4ccc5c(c4)OCO5)c3n2)c1 3.3 °C
Cc1cc(Nc2nc(-c3ccccc3)nc3ccccc23)n[nH]1 3.7 °C
NC(=O)Nc1sc(-c2ccccc2)cc1C(N)=O 3.1 °C
O=Nc1c(-c2c(O)[nH]c3ccc(S(O)(O)O)cc23)[nH]c2ccccc12 3.2 °C
CCN(CC)CCNC(=O)c1c(C)[nH]c(/C=C2\C(=O)Nc3ccc(Cl)cc32)c1C 5.4 °C
Nc1nc(Nc2ccc(S(N)(=O)=O)cc2)nn1C(=S)Nc1c(F)cccc1F 3.1 °C
OCC(O)CCO/N=C1/C(c2c(O)[nH]c3ccccc23)=Nc2ccccc21 (stereo unspecified) 3.3 °C
Cn1cc(/C=C2\C(=O)Nc3ccc(S(N)(=O)=O)cc32)c2ccccc21 6 °C
NS(=O)(=O)c1ccc(Nc2nc(OCC3CCCCC3)c3[nH]cnc3n2)cc1 5.6 °C
O=C1NCc2c1c1c3ccccc3[nH]c1c1[nH]c3ccccc3c21 3.7 °C
COc1cccc(-c2cnn3ccc(Nc4cccc(Cl)c4)nc23)c1 3.2 °C

Source: PubChem BioAssay AID506 (SGCOxCompounds, 2006)
